The text below walks through data of paper PMC11271582.

pEC50: −log10 of the molar value. Where “and” joins values, the source holds several entries; their conditions need not be identical. Identical values can stand only once.

Series [1] deals with protein synthesis (RNA translation) in Huh7/Lunet-T7 cells. Kind of series: ribopuromycylation assay. The format is cell-based, human. Particulars: 200 µg/ml. On the procedure:
A protocol for the ribopuromycylation method to detect nascent protein synthesis[52] was integrated into the workflow for the determination of VPs formation. In brief, cycloheximide (CHX, 200 µg/ml) was added to cells 30 min before the start of a four-hour treatment with 35 nM JNJ-A07 (or vehicle control) to block de novo protein synthesis. Thereafter, the medium was replaced with DMEMComplete prewarmed to 37 °C, to which puromycin was added at a final concentration of 10 µg/ml. Cells were incubated at 37 °C for 5 minutes and then either fixed for microscopy or lysed for western blot analysis.

The test system of the next series is DENV-2/16681. Further details: method as in PMID 34671169. The settings on record: pan-serotype; cited from earlier work.
The subject of a further series is YFV. The settings on record: cited from earlier work.
A further series relates to ZIKV. Further details: method as in PMID 34671169. The settings on record: cited from earlier work.
A further series has as its system cells. Further details: method as in Kaptein et al, Nature, 2021. Particulars: at used concentrations; ref Kaptein et al, Nature, 2021; cited from earlier work.
Another series concerns the target DENV NS1-5 polyprotein (Dengue virus type 2, UniProt P29990). Put plainly: polyprotein processing by western blot (pIRO-D system). Particulars: 35 nM, regardless of the time of addition. For orientation: In western blotting, separated proteins are transferred to a membrane and probed.
Series [2] deals with DENV vesicle packets (VPs) formation. Kind of series: determination of VPs formation (pIRO-D system, TEM) in Huh7/Lunet-T7 cells.
A further series has as its system DENV-1 or DENV-2. The settings on record: non-human primates; cited from earlier work.
For another series, the target named is T1, Calnexin-HA (Homo sapiens, UniProt P27824).
T1 construct: expressed in transfected cells
T1 sequence (P27824 21-592): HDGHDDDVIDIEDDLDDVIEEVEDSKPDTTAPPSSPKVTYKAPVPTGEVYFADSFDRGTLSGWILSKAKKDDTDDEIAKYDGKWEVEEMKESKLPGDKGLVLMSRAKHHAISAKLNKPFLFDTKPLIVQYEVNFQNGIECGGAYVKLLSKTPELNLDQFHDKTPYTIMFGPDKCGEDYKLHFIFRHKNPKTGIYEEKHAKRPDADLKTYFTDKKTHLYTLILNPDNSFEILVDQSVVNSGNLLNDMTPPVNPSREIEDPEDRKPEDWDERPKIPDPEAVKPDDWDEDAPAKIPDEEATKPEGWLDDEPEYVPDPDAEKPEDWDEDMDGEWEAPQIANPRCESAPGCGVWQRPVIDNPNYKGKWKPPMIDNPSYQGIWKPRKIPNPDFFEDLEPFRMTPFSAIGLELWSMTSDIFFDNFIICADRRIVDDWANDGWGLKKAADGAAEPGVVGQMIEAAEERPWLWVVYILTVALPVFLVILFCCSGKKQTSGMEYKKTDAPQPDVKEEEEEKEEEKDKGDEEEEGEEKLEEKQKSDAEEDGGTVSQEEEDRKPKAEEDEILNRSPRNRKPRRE
Kind of series: photoaffinity labeling and click labeling on agarose beads (specificity control). The class given is binding. Particulars: 1 µM, UV 365 nm.

The subject of series [3] is T2, WT (transient replicon assay, sgDVs-R2A, DENV 2/16681).
T2 construct: 16681 wild-type subgenomic reporter replicon sgDVs-R2A
Put plainly: microbe, parasite or virus in culture. The arrangement: species or system Huh7-derived cells (sheet title cut off after 'Hu'); transient DENV-2 replicon assay, inhibition of wild-type replicon replication. Particulars: wild-type replicon, replicate. Background: Replicon systems follow genome replication, usually without infectious particles.

The next series has as its target ZIKV NS4B (Zika virus, UniProt A0A024B7W1). Kind of series: imaging-based colocalization of click-labeled PAL compound with ZIKV NS4B (pIRO-Z). Particulars: 1 µM, Huh7/Lunet-T7 cells.
For another series, the target named is DENV NS4B and NS3 (Dengue virus type 2, UniProt P29990). Kind of series: imaging-based colocalization of click-labeled PAL compounds with DENV proteins (pIRO-D). The settings on record: 1 µM; pIRO-D WT, Huh7/Lunet-T7 cells.
Chain of DENV NS4B and NS3 (P29990 2244-2491): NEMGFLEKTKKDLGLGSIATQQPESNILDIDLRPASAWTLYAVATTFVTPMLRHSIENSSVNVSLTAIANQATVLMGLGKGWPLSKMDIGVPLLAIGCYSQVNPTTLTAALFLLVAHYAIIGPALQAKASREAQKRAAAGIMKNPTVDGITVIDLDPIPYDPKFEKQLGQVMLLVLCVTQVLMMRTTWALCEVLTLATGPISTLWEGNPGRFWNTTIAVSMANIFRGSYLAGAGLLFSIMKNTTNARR

Chain of ZIKV NS4B (A0A024B7W1 2270-2520): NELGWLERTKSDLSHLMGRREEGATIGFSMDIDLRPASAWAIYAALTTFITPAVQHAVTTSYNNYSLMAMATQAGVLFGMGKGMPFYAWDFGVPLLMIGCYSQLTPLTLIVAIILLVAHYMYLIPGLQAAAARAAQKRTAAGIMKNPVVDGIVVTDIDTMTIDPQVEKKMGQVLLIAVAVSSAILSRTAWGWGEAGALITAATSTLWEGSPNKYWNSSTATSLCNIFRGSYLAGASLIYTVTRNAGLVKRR
Chain of DENV NS1-5 polyprotein (P29990 2244-2491): as the sequence (P29990 2244-2491) above

Consider `C[C@@H]1C[C@@H]([C@H](O)CC2CC(=O)NC(=O)C2)C(=O)[C@@H](C)C1` [CHX, cycloheximide], for which, in series [1], the “RNA translation (puromycin incorporation)” value is “completely arrested RNA translation”.

Consider `COc1cc(NC(C(=O)N2CCc3ccc(OC(F)(F)F)cc32)c2ccc(Cl)cc2)cc(OCCCC(=O)O)c1` (stereo not shown) [JNJ-A07], for which the “activity against DENV” value with DENV-2/16681 is “nano- to picomolar”. In addition, in the series with YFV, the “antiviral activity against YFV lower compared to an average value for a DENV isolate” value was “about 1000 times”. Moreover, the “antiviral activity against ZIKV” value with ZIKV is “marginal antiviral activity”. In addition, in the series with cells, the cytotoxicity entry was “not cytotoxic”. The “effect on polyprotein processing” value on DENV NS1-5 polyprotein is listed as “no apparent effect on polyprotein processing”. In series [2] (35 nM), the VPE diameter result is given as “no effect on VPE diameter”. Further, the “VPs in time-of-addition experiment” value in [2] (35 nM added early, 4 h after transfection) is “almost complete loss of VPs”. For the same molecule, the “VPE formation efficiency in time-of-addition experiment” value in series [2] (35 nM added late, 16 h after transfection) was “reduced to a much lower degree”. Further, the “VPE decay with protein synthesis blocked” value in [2] (35 nM with CHX 200 µg/ml, compared to CHX only) is “does not accelerate VPE decay”. Besides, the VPE efficiency entry in series [2] (35 nM, NS4B resistance mutants) was “not affected”.

Regarding `COc1cc(N[C@H](C(=O)c2c[nH]c3ccc(OC(F)(F)F)cc23)c2ccc(Cl)cc2OC)cc(S(C)(=O)=O)c1` [Mosnodenvir], the “efficacy against infection with either DENV-1 or DENV-2” value in the series on DENV-1 or DENV-2 was “highly effective”.

What is called pEC50 is −log10 of the EC50, conventionally taken in molar units. Read a low pEC50 as a large EC50. With `C#CCCC1(CCn2cc(C(=O)C(Nc3cc(OC)cc(OCCOC)c3)c3ccc(Cl)cc3OC)c3cc(OC(F)(F)F)ccc32)N=N1` (stereo not shown) [Compound A], the “Cy5.5 labeling of HA-tagged Calnexin” value on Calnexin-HA is recorded as “No labeling”. Also, the pEC50 in series [3] (Dengue virus, Experimental series=1) was 7.19; in series [3] (Dengue virus, Experimental series=2), 7.21; in series [3] (Dengue virus, Experimental series=3), 7.28; in series [3] (Experimental series=1, inhibitor), 7.24 and 7.28; in series [3] (Experimental series=2, inhibitor), 7.32 and 7.31; in [3] (Experimental series=3, inhibitor), 7.17 and 7.19. Further, the “colocalization of labeled compound with ZIKV NS4B” value at ZIKV NS4B is given as “low-level, albeit significant colocalization”. In addition, the “colocalization of labeled PAL compound with NS4B (and NS3), Pearson correlation” value on DENV NS4B and NS3 is listed as “high degree of colocalization”.

`C#CCCC1(CCn2cc(C(=O)C(Nc3cc(OC)cc(OCCOC)c3)c3ccc(Cl)cc3OC)c3cc(OC(F)(F)F)ccc32)N=N1` (stereo not shown) [Compound B]: the “colocalization of labeled PAL compound with NS4B (and NS3), Pearson correlation” value on DENV NS4B and NS3 was “significantly lower colocalization”.
